One compound from patent publication US20220348565A1, “PHARMACEUTICAL COMPOUNDS” (SENTINEL ONCOLOGY LIMITED, priority 2019, published 2022) can be followed below.

This data set in a line: Chiral stability (interconversion) of isolated atropisomers on heating, chiral HPLC. The conditions noted are these: for % ee of sample @ 40° C. / % ee sample @ 80° C.: EtOH solution, listed as A-2. The data set is classed as physicochemical. The procedure:
Stability studies were carried out on the isolated atropisomers, atropisomers A-1 and A-2. To assess the interconversion of atropisomer A-1 and atropisomer A-2 chiral stability was monitored at 40° C. and 80° C. […] 1. 2×1 mg of pure atropisomer was dissolved in 1 mL of EtOH in a sealed-dram vial. 2. One set of vials was heated at 40° C. and another set at 80° C. 3. […] 4. Analysis was carried out at the following timepoints: 0 h, 24 h, 48 h, 72 h, 96 h and 240 h for the samples kept at 40° C. and 24 h, 96 h and 240 h for the samples kept at 80° C. using Chiral HPLC method 5

Consider `CN(C)CCNC(=O)c1ccc(-c2ccc(-c3ccc(Cl)cc3)n2-c2ccccc2C(F)(F)F)cc1` (single isomer, unassigned) [Atropisomer A-2, 4-[5-(4-chlorophenyl)-1-[2-(trifluoromethyl)phenyl]pyrrol-2-yl]-N-[2-(dimethylamino)ethyl]benzamide], for which the “% ee of sample @ 40° C.” value by setting is: (0 h) 97.20 % ee; (24 h) 97.34 % ee; (48 h) 97.30 % ee; (72 h) 97.24 % ee; (96 h) 97.14 % ee; (10 days) 97.46 % ee. Moreover, the “% ee sample @ 80° C.” value worked out at 97.20 % ee (0 h), 95.62 % ee (24 h), 96.62 % ee (96 h) and 97.12 % ee (10 days). For the same compound, under “from stability of isolated atropisomers”, the “atropisomer classification (LaPlante)” value is on record as “Class 3”. Moreover, under “heating for 10 days at 40° C. and 80° C.”, the “interconversion / racemization of atropisomers on heating” value was “no interconversion was observed”.
